Source: US20240390499A1, “METHOD” (OSLO UNIVERSITETSSYKEHUS HF, priority 2021, published 2024)

Key:
[1] = tested on: LN18 cells; test: MTT cell viability assay, DZ325 + cercosporin (FIG. 1); assay type: cell-based, human
Protocol: FIG. 1—Cell viability of LN18 cells: Compound DZ325+cercosporin.
(§1) The efficacy of the chemiluminescent compounds DZ325 and EK297 was tested in cell cultures of human glioblastoma multiforme cell lines (U87, T98G, M059K and LN-18).
(§2) The cells were inoculated in 96-well plates and left to attach overnight at 37° C. in a 5% CO2, humidified atmosphere. Subsequently the cells were incubated with (i) the photosensitizer (cercosporin) or the photosensitizer precursor (5-ALA, for the generation of the photosensitizer PpIX); and (ii) the compound at the appropriate concentration. In the case of 5-ALA, its introduction to the cell culture preceded that of the chemiluminescent compound by 1 hour to ensure adequate PpIX production. In the case of cercosporin, it was administered at the same time as the chemiluminescent compound. […]
(§3) 24 hours from the introduction of the chemiluminescent compounds to the cells, the cell media was removed and replaced with 100 μL of media containing 0.5 mg/mL thiazolyl blue salts for the performance of a standard MTT viability assay. […] The endpoint absorbance measurement was made at 561 nm. […] The experimental cell viability of the combined treatment (photosensitizer+chemiluminescent compound) was compared to the theoretical additive treatment of the photosensitizer+chemiluminescent compound which was calculated as follows: […]

[2] = tested on: M059K cells; test: MTT cell viability assay, DZ325 + cercosporin (FIG. 2); assay type: cell-based, human
Protocol: FIG. 2—Cell viability of M059K cells: Compound DZ325+cercosporin.
as §1, §2, §3

[3] = tested on: human glioblastoma multiforme cell lines (U87, T98G, M059K and LN-18); test: MTT cell viability assay, chemiluminescent compound plus photosensitizer (FIG. 3); assay type: cell-based
Protocol: as §1
The cells were inoculated in 96-well plates and left to attach overnight at 37° C. in a 5% CO2, humidified atmosphere. Subsequently the cells were incubated with (i) the photosensitizer (cercosporin) or the photosensitizer precursor (5-ALA, for the generation of the photosensitizer PpIX); and (ii) the compound at the appropriate concentration. In the case of 5-ALA, its introduction to the cell culture preceded that of the chemiluminescent compound by 1 hour to ensure adequate PpIX production. In the case of cercosporin, it was administered at the same time as the chemiluminescent compound.
The chemiluminescent compounds were prepared as 50 mM stock solutions in DMSO (or 1-methyl-2-pyrrolidone) and diluted in cell media to their final concentrations. Cercosporin was prepared as a 4 mM solution in DMSO and appropriately diluted in cell media. 5-ALA was made to its final concentration in Optimem. In the case of the luminol-based compound (DZ325), Cu was in some cases added to the cell media in the form of CuSO4 at a final concentration of 100 μM.
24 hours from the introduction of the chemiluminescent compounds to the cells, the cell media was removed and replaced with 100 μL of media containing 0.5 mg/mL thiazolyl blue salts for the performance of a standard MTT viability assay. The MTT containing medium was left to incubate for 1 to 3 hours and then removed and replaced with 100 μL DMSO. The endpoint absorbance measurement was made at 561 nm. Media only controls were used as 100% cell viability controls. The experimental cell viability of the combined treatment (photosensitizer+chemiluminescent compound) was compared to the theoretical additive treatment of the photosensitizer+chemiluminescent compound which was calculated as follows:
In each figure, one example of synergy is highlighted. […] Calculated cell viability is determined according to the following equation (in which “PS”=photosensitizer; “CL”=chemiluminescent agent): […]

## Cc1ccc(S(=O)(=O)NCCCNc2cccc3c(=O)[nH][nH]c(=O)c23)cc1 [DZ325, N-(3-((1,4-dioxo-1,2,3,4-tetrahydrophthalazin-5-yl)amino)propyl)-4-methylbenzenesulfonamide]
[1]
  synergy between chemiluminescent compound and photosensitizer: synergy
[2]
  synergy between chemiluminescent compound and photosensitizer: synergy

## Cc1ccc(S(=O)(=O)N2CCN(C(=O)c3cc(Br)c(OC(=O)c4c5ccccc5[n+](C)c5ccccc45)c(Br)c3)CC2)cc1.O=S(=O)([O-])C(F)(F)F [EK297, 9-((2,6-dibromo-4-(4-tosylpiperazine-1-carbonyl)phenoxy)carbonyl)-10-methylacridin-10-ium trifluoromethanesulfonate]
[3]; 3 μM cercosporin+400 μM EK297, MTT 24 hours, FIG. 3
  experimental cell viability of combined treatment: 21.5%
[3]; 3 μM cercosporin+400 μM EK297, calculated from single-agent viabilities
  calculated cell viability (theoretical additive): 59.5%
[3]; EK297 with cercosporin, experimental vs calculated viability
  synergy between chemiluminescent compound and photosensitizer: cytotoxic synergy
[3]; Homo sapiens, 400 μM EK297 alone, MTT 24 hours, FIG. 3, cell line not stated, read-out: cell viability (printed as 'toxicity')
  viability at 400 µM: 74.5%

## COc1c(CC(C)O)c2c3c(CC(C)O)c(OC)c(=O)c4c(O)cc5c(c6c(cc(O)c(c1=O)c62)OCO5)c43 (stereo not shown) [cercosporin, reference compound]
[3]; Homo sapiens, 24 h, read-out: cell viability
  viability at 3 µM: 80%
